Values quoted from earlier work, collected in patent US20210236427A1, “Development of Lipid Matrix Granules with Incorporation of Polysaccharides for Effective Delivery of an Antimicrobial Essential Oil” (University of Manitoba, priority 2018, published 2021).

Test system: Brachyspira hyodysenteriae
Conditions: in vitro; Vande Maele et al., 2016

CCCCCCCCCCCC(=O)O [lauric acid]
minimum inhibitory concentration (MIC): less than 1.5 mM
